Measurements taken from US20140096967A1, “SALT-TOLERANT ANIONIC SURFACTANT COMPOSITIONS FOR ENHANCED OIL RECOVERY (EOR) APPLICATIONS” (Board of Regents, The University of Texas System, priority 2012, published 2014).
Like-named read-outs stand apart in the source and are kept apart here. Marks after values point to notes of the source that are not given here.

Legend:
[1] = data from Mukerjee et al. (1971), cited from earlier work
[2] = conventional sodium alkylsulfates; data from O'Lenick; cited from earlier work
[3] = Static adsorption test on disaggregated Berea sandstone core particles; type: physicochemical; conditions: 10,000 mg/L NaCl, LSR of 40, 12 hrs. equilibration at 25° C. (FIG. 19)
Source text: Static Adsorption Tests. A static adsorption test was used for measuring surfactant adsorption at solid-water interfaces. The procedures were adopted from the study by Hanna et al. (1977). The adsorbents used for static adsorption tests were particles disaggregated from a Berea sandstone core and sieved through a 60 mesh screen ([…]). The use of 60 mesh screen is based on the consideration that a wider and thus more representative range of particle sizes could be included. The adsorbent grains were heated in the oven overnight and cooled in a desiccator over Drierite™ before use. The surfactant concentration was measured by Total Organic Carbon (TOC) method, which represents the amount of total carbon in the sample. […] The amount of surfactant adsorbed was determined by measuring different concentrations in the solution before and after contact with the adsorbents,
Where Γ (mg/g) is the surfactant adsorption density on the adsorbents; Co and C (mg/L) are surfactant concentrations before and after adsorption tests; V (ml) is the volume of surfactant solution used in the test, and M (gram) is the mass of the adsorbents used in the test. A dimensionless quantity θ can be defined as follows: […]
Equilibrium Adsorption Time. To ensure true equilibrium adsorption, the progression of 16-4-16 adsorption level with time was recorded to identify a suitable duration for equilibration. […]

Row | maximum adsorption density, trend among surfactants [3] | Structure (SMILES) | CMC ([1]; 30° C.) | CMC ([1]; 40° C.) | CMC ([1]; 60° C.) | Krafft Point [2]
1 | – | CCCCCCCCCCCCCCOS(=O)(=O)[O-].[Na+] [C14—SO4^− Na^+] | 2080** 10^−3 mmol/L | 2210** 10^−3 mmol/L | 2770** 10^−3 mmol/L | 28* ° C.
2 | – | CCCCCCCCCCCCOS(=O)(=O)[O-].[Na+] [C12—SO4^− Na^+] | 8230** 10^−3 mmol/L | 8600** 10^−3 mmol/L | 10160** 10^−3 mmol/L | 16* ° C.
3 | 16-4-16<SHS<S13-C | CCCCCCCCCCCCCCCCOS(=O)(=O)[O-].[Na+] [C16—SO4^− Na^+, sodium hexadecyl sulfate] | – | 580** 10^−3 mmol/L | – | 45* ° C.
